# In US10035795B1, “Phenothiazine derivatives having CaM inhibitory activity” (KOREA INSTITUTE OF SCIENCE AND TECHNOLOGY, priority 2017, dated 2018):
# Test system: U87MG cells
# Assay: Calcium imaging (Ca2+ imaging): change in the calcium level of the cells, Fura-2 340/380 ratio
# Assay type: cell-based
# Details: 100 μM in HEPES buffer, average 340/380 ratio reactivity for 200 seconds relative to TFP (trifluoperazine) as 100%
# Description: Calcium Imaging (Ca^2+ Imaging)
# Calcium imaging was conducted as follows in order to measure the change in the calcium level in […] (glioblastoma cells) by TFP (trifluoperazine) and the phenothiazine derivative represented by Chemical Formula 1 according to the present invention. First, after placing a polylysine (PDL)-coated coverslip on a 24-well plate, 2×10^4 U87MG cells detached by treating with trypsin were seeded thereupon. On the next day, the coverslip was incubated at room temperature for 1 hour in a Fura-2 solution (5 μM Fura-2 AM, 1 μM pluronic acid in HEPES buffer, pH 7.4) and washed twice with a HEPES buffer (10 mM HEPES, 150 mM NaCl, 3 mM KCl, 2 mM CaCl2, 1 mM MgCl2, 22 mM sucrose, 10 mM glucose, pH 7.4). The washed coverslip was mounted in a bath adapter (bath adapter) and placed under a calcium imaging microscope (Olympus IX71). After connecting a bath line to the bath adapter, the change in the calcium level of the cells was recorded for 300 seconds (4-second intervals; 340 nm, 380 nm, 340/380 nm ratio) by running a calcium imaging program (Imaging Workbench 6.0, Indec Inc.). After flowing a HEPES buffer for 50 seconds for setting of the baseline, a TFP (trifluoperazine) solution or solution of the phenothiazine derivative represented by Chemical Formula 1 (100 μM in HEPES buffer) were flown as test solutions for 100 seconds and then a HEPES buffer was flown again for 150 seconds. All the test solutions were prepared by diluting a 50 mM stock solution to 100 μM with a HEPES buffer. For analysis of the change of intracellular calcium level by the phenothiazine derivative represented by Chemical Formula 1, data files were read using a calcium imaging analysis program (Clampfit 9.2, Axon Inc.) and only the 340/380 ratio values were taken. The values recorded for the first 50 seconds were set to “0” and graphs were rearranged. Then, the average reactivity to the phenothiazine derivative represented by Chemical Formula 1 for 200 seconds was calculated relative to the average reactivity to TFP (trifluoperazine) for 200 seconds as 100%.
row,SMILES,Reactivity (%)
1,"CC1CCN(CCCCN2c3ccccc3Sc3ccc(F)cc32)CC1 [Example 76, 2-fluoro-10-(4-(4-methylpiperidin-1-yl)butyl)-10H-phenothiazine]",110%
2,"FC(F)(F)c1ccc2c(c1)N(CCCCN1CCC(N3CCCCC3)CC1)c1ccccc1S2 [Example 43, 10-(4-(1,4′-bipiperidin-1′-yl)butyl)-2-(trifluoromethyl)-10H-phenothiazine]",123%
3,"FC(F)(F)c1ccc2c(c1)N(CCCCN1CCC(N3CCCC3)CC1)c1ccccc1S2 [Example 42, 10-(4-(4-(pyrrolidin-1-yl)piperidin-1-yl)butyl)-2-(trifluoromethyl)-10H-phenothiazine]",134%
4,"CSc1ccc2c(c1)N(CCCCN1CCC(N3CCCCC3)CC1)c1ccccc1S2 [Example 72, 10-(4-(1,4′-bipiperidin-1′-yl)butyl)-2-(methylthio)-10H-phenothiazine]",131%
5,"FC(F)(F)c1ccc2c(c1)N(CCCCN1CCC(N3CCOCC3)CC1)c1ccccc1S2 [Example 41, 4-(1-(4-(2-(trifluoromethyl)-10H-phenothiazine;-10-yl)butyl)piperidin-4-yl)morpholine]",120%
6,"CSc1ccc2c(c1)N(CCCN1CCC(N3CCCC3)CC1)c1ccccc1S2 [Example 55, 2-(methylthio)-10-(3-(4-(pyrrolidin-1-yl)piperidin-1-yl)propyl)-10H-phenothiazine]",114%
7,"CSc1ccc2c(c1)N(CCCCN1CCC(N3CCCC3)CC1)c1ccccc1S2 [Example 52, 2-(methylthio)-10-(4-(4-(pyrrolidin-1-yl)piperidin-1-yl)butyl)-10H-phenothiazine]",150%
8,"Fc1ccc2c(c1)N(CCCCN1CCC(N3CCCC3)CC1)c1ccccc1S2 [Example 77, 2-fluoro-10-(4-(4-(pyrrolidin-1-yl)piperidin-1-yl)butyl)-10H-phenothiazine]",149%
9,"Clc1ccc2c(c1)N(CCCN1CCC(N3CCCCC3)CC1)c1ccccc1S2 [Example 69, 10-(3-(1,4′-bipiperidin-1′-yl)propyl)-2-chloro-10H-phenothiazine]",124%
10,"CN1CCN(CCCN2c3ccccc3Sc3ccc(C(F)(F)F)cc32)CC1 [TFP, trifluoperazine]",100%

# Test system: lung cancer
# Assay: cell viability assay, colony formation assay and soft agar colony formation assay
# Assay type: cell-based
# Details: not given
# Excerpt: (§1) TFP is a phenothiazine-based compound mainly used as an antipsychotic [see patent document 1]. Antipsychotics are psychiatric drugs primarily used to manage psychosis such as schizophrenia, bipolar disorder, etc. and also to manage non-psychiatric disorder such as sleep. The antipsychotics tend to block receptors in the brain's dopamine pathways but cover a wide range of drug targets. […] Based on this, cell viability assay, matrigel invasion assay, colony formation assay and soft agar colony formation assay were conducted to investigate whether TFP suppresses lung cancer.
row,SMILES,migration and proliferation of lung cancer
1,"CN1CCN(CCCN2c3ccccc3Sc3ccc(C(F)(F)F)cc32)CC1 [TFP, trifluoperazine]",suppresses the migration and proliferation of lung cancer

# Test system: cancer cells
# Assay: matrigel invasion assay
# Assay type: cell-based
# Details: not given
# Excerpt: as §1
row,SMILES,invasion of cancer cells
1,"CN1CCN(CCCN2c3ccccc3Sc3ccc(C(F)(F)F)cc32)CC1 [TFP, trifluoperazine]",inhibits the invasion of cancer cells
